Results: US9951055B2, “Thiazole-based inhibitors of scavenger receptor BI” (THE BROAD INSTITUTE, INC., priority 2012, dated 2018)
Changes are numbered by the printed parent chain. “Also recorded” adds a separate entry of the source. Read-outs that look alike come from different tables or passages of the source.

How the values were obtained:
[1] = target: T1, murine SR-BI with the C384S mutation (Mus musculus, UniProt Q61009, C384S); experiment: Mutant SR-BI cholesterol efflux assay; format: cell-based
T1 construct: expressed in transfected cells; host or cells: CHO cell line lacking LDL receptors (variant of ldlA[mSR-BI])
T1 sequence (Q61009 1-509 C384S): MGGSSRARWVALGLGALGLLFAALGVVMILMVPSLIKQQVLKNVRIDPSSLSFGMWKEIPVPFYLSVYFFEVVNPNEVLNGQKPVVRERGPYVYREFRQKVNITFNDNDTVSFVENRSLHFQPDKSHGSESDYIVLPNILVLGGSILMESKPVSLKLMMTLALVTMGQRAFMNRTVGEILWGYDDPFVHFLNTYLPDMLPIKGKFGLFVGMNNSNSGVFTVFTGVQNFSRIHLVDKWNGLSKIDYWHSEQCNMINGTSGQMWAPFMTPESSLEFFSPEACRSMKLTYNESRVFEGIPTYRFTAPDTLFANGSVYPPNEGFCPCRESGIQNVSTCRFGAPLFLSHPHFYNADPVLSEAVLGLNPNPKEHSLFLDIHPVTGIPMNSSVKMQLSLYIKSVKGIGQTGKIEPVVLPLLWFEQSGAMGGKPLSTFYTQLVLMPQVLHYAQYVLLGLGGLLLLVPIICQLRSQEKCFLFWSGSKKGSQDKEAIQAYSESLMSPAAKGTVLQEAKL
Experimental: Mutant SR-BI Cholesterol Efflux Assay (SA 10: AID Nos. 588843, 602138)
BLT-1 is known to interact at cysteine 384 of SR-BI (16). […] This assay is used to determine if the compounds work in a similar fashion to BLT-1 and require Cys384 to alter the efflux of free cholesterol to HDL.
On Day 0, 50,000 cells expressing murine SR-BI with the C384S mutation per well were plated in 24-well plates. On the following day, […] On Day 1, the medium was replaced with Ham's F12 medium supplemented with 10% bovine lipoprotein deficient serum with 1 μCi/ml [1,2-^3H]cholesterol (40-60 Ci/mmol). On Day 3, the cells were washed to remove serum and incubated in Ham's F12 plus 1% fatty acid-free BSA. On Day 4, the cells were washed and pretreated with compounds for 1 hour. Subsequently, the cells were incubated for an additional 2 hours with the same concentrations of small molecules and with unlabeled HDL (final HDL concentration of 100 μg protein/ml). […] The amount of [^3H]cholesterol in the medium and within cells was calculated using liquid scintillation counting. Total cellular [^3H]cholesterol was determined as the sum of the radioactivity in the efflux medium plus the radioactivity in the cells and was used to calculate the [^3H]cholesterol efflux (percent of total [^3H]cholesterol released into the medium).

murine SR-BI = target: T2, murine SR-BI (Mus musculus, UniProt Q61009); experiment: DiI-HDL uptake assay with washout; format: cell-based
T2 construct: expressed in transfected cells; host or cells: ldlA[mSR-BI]; (CHO ldlA7 derivative lacking the LDL receptor)
T2 sequence (Q61009 1-509): T1 sequence (Q61009 1-509 C384S) with S384C
Experimental: DiI-HDL Uptake Assay with Washout (SA 5: AID No. 588831)
This is a modification of the primary assay where cells are treated with compound prior to the addition of DiI-HDL but no compound is present during the DiI-HDL treatment period. ldlA[mSR-BI]cells were plated into 384-well plates at 30 μl per well and incubated overnight. Cells were treated with compound for 3 hours, then media were removed and the cells were washed with PBS before fresh lipoprotein-free media (Ham's F12/0.5% fatty acid-free Bovine Serum Albumin [BSA]/25 mM HEPES pH 7.4) was added with […] DiI-HDL. Cells took up the DiI via SR-BI over 3 hours in the absence of compound. After significant uptake of the DiI, the cells became fluorescent. The level of fluorescence correlates with the amount of DiI uptake and can be measured with a standard plate reader. The uptake of lipid (represented by DiI) was inhibited by the compound BLT-1.

[2] = test system: Jc1 378-1 TagRFP reporter HCV virus; experiment: In vitro inhibition of HCV in Huh-7.5 cells; format: cell-based, hepatitis C virus; details: for inhibition of HCV replication: Huh-7.5 cells, MOI=0.1, 3 dpi; for mean fluorescence intensity (MFI) of HCV positive cells: normalized to DMSO control
Experimental: The compound of formula (II) was also tested for the in vitro inhibition of HCV. Huh-7.5 cells were seeded in a 24-well plates (50,000 cells/well) and incubate over night. The medium was changed to compound/solvent containing medium 2 hours prior to infection (200 μL/well) with a reporter HCV virus called Jc1 378-1 TagRFP. A dilute virus stock was used to infect at a MOI of 0.1 (7,500 IU/well) in 10 μL medium. 10 μL of virus dilution was added to the wells containing compound/solvent (thereby dilution the compounds by only ˜5%). Infections were incubated for 4 hours before washing off the inoculum 1× with 500 μL medium. Fresh compound/solvent containing medium was added to the cells (500 μL/well), and further incubated for 48-72 hours. Cells were harvested at 48-72 hpi and viral replication was determined by fixing the cells and measuring replication by FACS (fluorescence activated cell sorting). Controls having antibodies that neutralize HCV by blocking E2 (2 μg/mL) and controls having antibodies that block a HCV receptor CD81 (2 μg/mL) were used.
A series of tests were conducted using the compound of Formula II ML278), other known inhibitors of SRB1 and controls with cells infected with hepatitis C virus (HCV). The cells (Huh-7.5 cells infected with Jc1 378-1 TagRFP (MOI=0.1) 3 dpi) were treated with the following SR-BI compounds and controls:
Three different infection protocols were followed: (1) no wash—virus inoculum was removed 4 hpi and fresh medium containing compounds added without washing cells; (2) 5× wash—virus inoculum was removed 4 hpi, cells were washed 5× with PBS and fresh medium containing compounds added; and (3) no wash Opt—infection were performed in serum-free OptiMem; virus inoculum was removed 4 hpi and fresh medium containing compounds added without washing cells. FIG. 107 provides a comparison of the three different infection set-ups. FIG. 108 provides a comparison of two independent experiments.

Row | SMILES | efflux of cholesterol in Cys384Ser mutant background [1] | reversibility of inhibition (murine SR-BI) | inhibition of HCV replication ([2]; listed as SRB1-8) | mean fluorescence intensity (MFI) of HCV positive cells [2] | inhibition after washout at the IC50 concentration (murine SR-BI) | IC50 (murine SR-BI; cells pre-treated, washed with PBS, DiI-HDL without compound, read-out: IC50 after washout) [nM] | reversibility of inhibition (murine SR-BI; listed as ML278) | reversibility of inhibition (murine SR-BI; listed as Probe 278) | EC50 ([2]; Hepatitis C virus, Huh7.5, read-out: EC50, HCV) [nM] | EC90 ([2]; Hepatitis C virus, Huh7.5, read-out: EC90, HCV) [nM] | inhibition of HCV replication ([2]; listed as SRB1-7)
1 | CCCCCCC1CCCC1=NNC(N)=S (stereo not shown) [BLT-1, reference compound] | does not significantly reduce uptake of HDL or efflux of cholesterol | nonreversible covalent modifier of SR-BI | inhibited viral replication; also recorded: able to inhibit HCV replication | increased mean fluorescence intensity (MFI) of HCV positive cells in a dose dependent manner | – | – | – | – | – | – | –
2 | COCC(=O)N1CCc2cc(-c3csc(NC(=O)c4cc(OC)cc(OC)c4)n3)ccc21 [Compound 137, 3,5-Dimethoxy-N-(4-(1-(2-methoxyacetyl)indolin-5-yl)thiazol-2-yl)benzamide] | can reduce uptake and efflux in the mutant background | – | – | this increase was not seen | no inhibition | 300 | reversible inhibitor of HDL uptake | reversible inhibitor | 44 | ~500 | inhibited viral replication; also recorded: able to inhibit HCV replication
